In ChEMBL document CHEMBL3822384, “2-(3-Methoxyphenyl)quinazoline Derivatives: A New Class of Direct Constitutive Androstane Receptor (CAR) Agonists” (J Med Chem, 2016):
Calls of active or inactive are those of the source. The calls are words filed in the database; no cut-off is given here.

Assays:
[1] = target: T1, Nuclear receptor subfamily 1 group I member 3 (Homo sapiens, UniProt Q14994); experiment: Agonist activity at CAR LBD (108 to 348 residues) expressed in human HepG2 cells assessed as receptor binding to PGC1alpha by lanthascreenTR-FRET coactivator assay
T1 sequence (Q14994 whole entry): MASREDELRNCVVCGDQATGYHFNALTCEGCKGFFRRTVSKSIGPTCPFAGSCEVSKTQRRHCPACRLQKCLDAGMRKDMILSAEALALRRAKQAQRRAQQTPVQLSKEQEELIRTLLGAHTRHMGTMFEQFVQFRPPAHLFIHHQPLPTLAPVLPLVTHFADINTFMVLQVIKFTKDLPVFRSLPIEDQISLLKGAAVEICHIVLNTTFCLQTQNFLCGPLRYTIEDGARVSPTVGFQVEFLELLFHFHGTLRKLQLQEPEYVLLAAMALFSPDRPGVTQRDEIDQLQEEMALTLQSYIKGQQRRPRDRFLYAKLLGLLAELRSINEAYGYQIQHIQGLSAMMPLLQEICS

[2] = target: T2, Nuclear receptor subfamily 1 group I member 2 (Homo sapiens, UniProt O75469); experiment: (§1) Agonist activity at PXR expressed in human HepG2 cells after 24 hrs by p3A4-luciferase reporter gene assay
T2 sequence (O75469 whole entry): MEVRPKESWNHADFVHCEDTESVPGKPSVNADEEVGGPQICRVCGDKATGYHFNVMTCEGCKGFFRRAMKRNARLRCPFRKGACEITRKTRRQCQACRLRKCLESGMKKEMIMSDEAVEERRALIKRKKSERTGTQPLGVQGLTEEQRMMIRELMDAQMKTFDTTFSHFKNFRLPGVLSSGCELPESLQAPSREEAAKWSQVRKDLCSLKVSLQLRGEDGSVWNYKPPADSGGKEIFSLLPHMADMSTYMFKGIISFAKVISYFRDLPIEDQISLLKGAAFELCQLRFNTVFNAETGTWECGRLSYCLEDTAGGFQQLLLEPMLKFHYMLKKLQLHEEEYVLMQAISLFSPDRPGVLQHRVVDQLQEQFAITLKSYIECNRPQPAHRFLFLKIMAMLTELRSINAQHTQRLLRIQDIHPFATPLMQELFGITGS

PXR (NR1I2) = target: T3, PXR (NR1I2) (Homo sapiens, UniProt O75469); experiment: as §1; conditions: human, HepG2 cells expressing PXR
T3 sequence (O75469 whole entry): T2 sequence (O75469 whole entry)

[3] = target: T4, Glucocorticoid receptor (Homo sapiens) (UniProt P04150); experiment: Agonist activity at glucocorticoid receptor (unknown origin)
T4 sequence (whole entry): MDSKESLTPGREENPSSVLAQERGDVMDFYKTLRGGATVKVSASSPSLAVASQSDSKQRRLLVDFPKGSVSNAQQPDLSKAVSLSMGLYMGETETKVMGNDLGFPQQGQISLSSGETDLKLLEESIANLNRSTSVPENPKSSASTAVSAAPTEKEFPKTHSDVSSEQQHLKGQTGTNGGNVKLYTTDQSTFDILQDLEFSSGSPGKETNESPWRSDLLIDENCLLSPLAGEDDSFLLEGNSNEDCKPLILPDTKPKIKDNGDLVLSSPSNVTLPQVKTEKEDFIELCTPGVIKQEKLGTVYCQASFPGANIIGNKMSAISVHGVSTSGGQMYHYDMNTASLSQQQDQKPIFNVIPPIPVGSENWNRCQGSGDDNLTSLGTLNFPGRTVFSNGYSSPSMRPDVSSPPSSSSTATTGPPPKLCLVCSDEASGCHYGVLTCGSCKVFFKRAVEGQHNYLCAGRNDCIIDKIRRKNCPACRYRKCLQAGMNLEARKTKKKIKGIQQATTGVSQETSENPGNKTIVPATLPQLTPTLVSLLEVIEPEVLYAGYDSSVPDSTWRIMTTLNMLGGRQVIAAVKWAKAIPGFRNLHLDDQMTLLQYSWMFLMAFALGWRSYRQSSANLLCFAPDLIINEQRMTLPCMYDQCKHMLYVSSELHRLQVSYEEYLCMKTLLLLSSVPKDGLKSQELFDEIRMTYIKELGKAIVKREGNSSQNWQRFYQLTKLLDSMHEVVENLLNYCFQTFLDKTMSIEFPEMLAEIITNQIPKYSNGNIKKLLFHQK

[4] = target: T1, Nuclear receptor subfamily 1 group I member 3; experiment: Agonist activity at human CAR expressed in human HepG2 cells assessed as induction of CYP2B6 mRNA expression at 1 to 10 uM after 24 hrs by qRT-PCR method; format: cell-based; conditions: hepg2, 24 h
[5] = target: T2, Nuclear receptor subfamily 1 group I member 2; experiment: Agonist activity at PXR in human primary hepatocytes assessed as upregulation of MDR/ABCB1 mRNA expression at 10 uM after 24 hrs by qRT-PCR method; format: cell-based, Hepatocyte
[6] = target: T5, Vitamin D3 receptor (Homo sapiens) (UniProt P11473); experiment: Agonist activity at VDR in human primary hepatocytes assessed as upregulation of CYP2C9 mRNA expression at 10 uM after 24 hrs by qRT-PCR method; format: cell-based; conditions: Hepatocyte
T5 sequence (whole entry): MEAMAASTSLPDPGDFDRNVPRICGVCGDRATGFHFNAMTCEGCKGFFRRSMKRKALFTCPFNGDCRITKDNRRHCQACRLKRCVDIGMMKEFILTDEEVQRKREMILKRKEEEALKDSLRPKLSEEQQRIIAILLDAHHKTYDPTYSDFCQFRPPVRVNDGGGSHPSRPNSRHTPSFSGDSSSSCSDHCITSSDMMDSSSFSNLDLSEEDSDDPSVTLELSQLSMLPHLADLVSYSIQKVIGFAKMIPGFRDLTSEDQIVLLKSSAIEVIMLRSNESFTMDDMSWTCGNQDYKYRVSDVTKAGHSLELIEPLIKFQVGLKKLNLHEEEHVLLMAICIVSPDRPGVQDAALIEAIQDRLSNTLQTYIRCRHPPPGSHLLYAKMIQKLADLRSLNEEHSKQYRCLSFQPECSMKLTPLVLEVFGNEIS

[7] = target: T5, Vitamin D3 receptor (Homo sapiens); experiment: Agonist activity at VDR in human primary hepatocytes assessed as upregulation of MDR/ABCB1 mRNA expression at 10 uM after 24 hrs by qRT-PCR method; format: cell-based; conditions: Hepatocyte
Cytochrome P450 3A4 = Cytochrome P450 3A4 (Homo sapiens, UniProt P08684); experiment: Inhibition of recombinant human CYP3A4 by P450-Glo luminescence assay; format: ADME
Cytochrome P450 3A4, sequence (P08684 whole entry): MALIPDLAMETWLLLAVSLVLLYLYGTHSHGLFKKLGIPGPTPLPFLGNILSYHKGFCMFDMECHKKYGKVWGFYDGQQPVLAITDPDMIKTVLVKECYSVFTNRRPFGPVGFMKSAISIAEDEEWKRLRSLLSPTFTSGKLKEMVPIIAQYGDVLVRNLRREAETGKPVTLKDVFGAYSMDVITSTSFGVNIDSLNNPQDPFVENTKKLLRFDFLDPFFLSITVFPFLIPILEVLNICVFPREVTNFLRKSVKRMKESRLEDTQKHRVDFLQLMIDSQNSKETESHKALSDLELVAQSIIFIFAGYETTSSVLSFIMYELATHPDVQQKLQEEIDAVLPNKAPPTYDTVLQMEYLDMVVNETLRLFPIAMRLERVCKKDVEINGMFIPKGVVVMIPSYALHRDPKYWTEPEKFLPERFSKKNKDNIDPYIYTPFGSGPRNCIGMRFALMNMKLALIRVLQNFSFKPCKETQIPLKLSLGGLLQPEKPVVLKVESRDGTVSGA

Cytochrome P450 2D6 = Cytochrome P450 2D6 (Homo sapiens, UniProt P10635); experiment: Inhibition of recombinant human CYP2D6 by P450-Glo luminescence assay; format: ADME
Cytochrome P450 2D6, sequence (P10635 whole entry): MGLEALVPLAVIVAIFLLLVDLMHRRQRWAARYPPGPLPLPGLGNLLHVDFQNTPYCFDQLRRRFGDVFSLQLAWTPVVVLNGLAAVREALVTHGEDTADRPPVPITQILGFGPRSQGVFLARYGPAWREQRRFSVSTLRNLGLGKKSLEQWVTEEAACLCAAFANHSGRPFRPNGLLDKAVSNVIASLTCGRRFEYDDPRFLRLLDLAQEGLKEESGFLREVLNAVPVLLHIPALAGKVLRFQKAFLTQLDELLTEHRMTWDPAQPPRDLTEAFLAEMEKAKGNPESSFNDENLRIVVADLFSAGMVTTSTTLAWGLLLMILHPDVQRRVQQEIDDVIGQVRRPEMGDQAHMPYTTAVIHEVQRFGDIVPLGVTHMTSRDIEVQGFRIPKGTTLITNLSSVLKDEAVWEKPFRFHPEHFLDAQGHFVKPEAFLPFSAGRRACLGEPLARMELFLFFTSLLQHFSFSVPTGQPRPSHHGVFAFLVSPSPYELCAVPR

[8] = target: T1, Nuclear receptor subfamily 1 group I member 3; experiment: Agonist activity at human CAR expressed in human HepG2 cells assessed as induction of CYP2B6 mRNA expression at 1 to 5 uM after 24 hrs by qRT-PCR method; format: cell-based; conditions: hepg2, 24 h

| EC50 [1] [µM] | EC50 [2] [µM] | Emax at 24 h (PXR (NR1I2)) [%] | Activity [3] | Activity [4] | Activity [5] | Activity [6] | Activity [7] | IC50 (Cytochrome P450 3A4; read-out: IC50) [µM] | IC50 (Cytochrome P450 2D6) | Activity [8] | IC50 (Cytochrome P450 3A4) | IC50 (Cytochrome P450 2D6; read-out: IC50) [µM] | Structure (SMILES) |
| --- | --- | --- | --- | --- | --- | --- | --- | --- | --- | --- | --- | --- | --- |
| 2.07 | > 3 | > 250 | inactive | Active | Active | Active | Active | 12.9 | Not Active | – | – | – | COc1cccc(-c2nc(OC)c3ccccc3n2)c1 |
| 0.69 | 0.86 | 165 | inactive | – | Active | Active | Active | – | Not Active | Active | Not Active | – | COc1cccc(-c2nc3ccccc3c(=S)[nH]2)c1 |
| 5.12 | > 3.5 | > 250 | inactive | – | Active | Active | Active | 22.9 | – | – | – | 17.3 | COc1cccc(-c2nc(SC)c3ccccc3n2)c1 |
